The values that follow are results of earlier work, collected in patent US20090312311A1, “COMBINATION OF ORGANIC COMPOUNDS” (priority 2006, published 2009).

For series [1], the system named is hypertrophy induced by infusion of isoproterenol.
Series [2] has as its system cardiac hypertrophy. As to conditions: transgenic mice that overexpress Hop; Kook et al. 2003.

With `CC(/C=C/C(=O)NO)=C\[C@@H](C)C(=O)c1ccc(N(C)C)cc1` [trichostatin A], the effect on hypertrophy entry in series [1] was “attenuates hypertrophy”. Further, the “effect on cardiac hypertrophy” value in series [2] is “prevents cardiac hypertrophy”.
